{
  "source": "paper PMC12609579",
  "about": "“Acute Myeloid Leukemia: A Key Role of DGKα and DGKζ in Cell Viability” (Cells, 2025)",
  "key": {"HEL cells [1]": {"system": "HEL cells", "test": "alamarBlue cell viability assay, HEL", "assay_type": "cell-based, human", "protocol": "(§1) The alamarBlue assay was performed to assess cell viability in presence of chemical inhibitors. A total of 50,000 cells per well were seeded in a 96-wells plate in a volume of 100 μL of complete medium together with 10 μL of 10× concentrated inhibitor solution and then incubated for either 24 or 72 h. Each experimental condition was performed in technical quadruplicates, using cells treated with equal amounts of DMSO vehicle as control and medium alone as background. After incubation, alamarBlue was added to each well at a final concentration of 0.15 mg/mL. The fluorescence of the samples was measured 24 h later using a Spark 10 M Multimode Plate Reader (Tecan, Switzerland) with excitation and emission wavelengths of 535 nm and 590 nm, respectively. For dose–response curve fitting, fluorescence values were normalized according to the following formula:Viability (%) = [(sample mean fluorescence)/(DMSO control mean fluorescence)] ∗ 100\n(§2) Data are the results of at least five independent experiments analyzed with GraphPad Prism 10 as [inhibitor] vs. normalized response curve (variable slope, after manual outlier removal)."}, "K562 cells": {"system": "K562 cells", "test": "alamarBlue cell viability assay, K562", "assay_type": "cell-based, human", "protocol": "as §1, §2"}, "[2]": {"system": "Peripheral blood lymphocytes (PBLs)", "test": "alamarBlue cell viability assay, PBLs from healthy donors", "assay_type": "cell-based, human", "conditions": "for IC50: Homo sapiens, Lymphocyte, PBLs from healthy donors", "protocol": "These four cell lines were employed in this study as in vitro models of AML, cell line identity was verified through a Cell Line Authentication Test conducted by Eurofins Genomics (Ebersberg, Germany) or by the internal university service. The resulting markers matched 100% with those reported in the ATCC database. […] L. Manzoli (Bologna, Italy), is reported as K562-related, differing from K526 by a single marker. Cells were cultured in RPMI-1640 medium (ThermoFisher Scientific, Waltham, MA, USA) supplemented with 10% heat-inactivated fetal bovine serum (FBS) and 1% penicillin-streptomycin, following the handling protocols provided by ATCC (Manassas, VA, USA). Additionally, healthy donor blood samples were provided by the UPO biobank under approved Ethical Committee authorization (Comitato Etico Interaziendale A.O.U. Maggiore della Carità 865/CE-CE206/2022 date 24 October 2022) and with informed consent for research use. Peripheral blood mononuclear cells were isolated by density gradient centrifugation using Ficoll-Paque PLUS (GE 14 Healthcare, Chicago, IL, USA), washed, and resuspended at a concentration of 2 × 10^6 cells/mL in RPMI-1640 medium containing 10% heat-inactivated FBS. Peripheral blood lymphocytes (PBLs) were selected by the treatment with 1 μg/mL anti-CD3 (clone OKT3) and anti-CD28 (clone CD28.2) human antibodies for 72 h. […]\nThe alamarBlue assay was performed to assess cell viability in presence of chemical inhibitors. […] The fluorescence of the samples was measured 24 h later using a Spark 10 M Multimode Plate Reader (Tecan, Switzerland) with excitation and emission wavelengths of 535 nm and 590 nm, respectively. For dose–response curve fitting, fluorescence values were normalized according to the following formula:Viability (%) = [(sample mean fluorescence)/(DMSO control mean fluorescence)] ∗ 100\nData are the results of at least five independent experiments analyzed with GraphPad Prism 10 as [inhibitor] vs. normalized response curve (variable slope, after manual outlier removal). […]"}, "THP-1 cells [3]": {"system": "THP-1 cells", "test": "Annexin V-FITC/7AAD apoptosis/necrosis flow cytometry, THP-1", "assay_type": "cell-based, human", "conditions": "THP-1, 24 h", "protocol": "(§3) To determine the type of cell death, apoptotic and necrotic cells were detected by flow cytometry using the Apoptosis Detection Kit Annexin V-FITC (Invitrogen, Carlsbad, CA, USA). For each sample, 500,000 cells, pretreated for 24 h, were stained according to manufacturer’s instructions, using 7-aminoactinomycin D (7AAD) instead of propidium iodide. Samples were analyzed on a BD FACS Symphony A5 flow cytometer (Franklin Lakes, NJ, USA) using BD FACSDiva 9.1 software. Data were gated based on FSC-A vs. FSC-H to exclude cell doublets and FSC-A vs. SSC-A to exclude debris. Different populations were identified as: live (Annexin V− and 7AAD−), necrotic (Annexin− and 7AAD+), early apoptotic (Annexin V+ and 7AAD−) and late apoptotic (Annexin+ and 7AAD+). Data are shown as mean ± SD of at least three independent experiments analyzed by GraphPad Prism 10 (control vs. [inhibitor])."}, "HL-60 cells": {"system": "HL-60 cells", "test": "Annexin V-FITC/7AAD apoptosis/necrosis flow cytometry, HL-60", "assay_type": "cell-based, human", "conditions": "HL-60, 24 h", "protocol": "as §3"}, "HEL cells [4]": {"system": "HEL cells", "test": "Annexin V-FITC/7AAD apoptosis/necrosis flow cytometry, HEL", "assay_type": "cell-based, human", "conditions": "24 h", "protocol": "as §3"}, "THP-1 cells [5]": {"system": "THP-1 cells", "test": "IPA canonical pathway analysis of differentially abundant proteins", "assay_type": "cell-based, human", "conditions": "THP-1, 24 h; ritanserin 50 µM, BAY 2965501 75 µM", "excerpt": "A Venn diagram was created to depict the overlap of differentially abundant proteins shared between the two treatments. These proteins, along with their gene symbols and log2FC values, were then used as input for IPA Core Analysis. The following filters were applied: human species and reference tissues/cells (hematopoietic progenitor cells, macrophages, monocytes, peripheral blood monocytes, and THP1 leukemic cells). The resulting Ingenuity Canonical Pathways were downloaded using standard filters and further refined to consider only those with a |Z-score| > 1. For ritanserin vs. DMSO, the top 15 most significant pathways were represented in a bar plot, while for BAY 2965501 vs. DMSO, only three significant pathways were identified and plotted."}, "[6]": {"system": "bone marrow mononuclear cells from primary AML samples", "parameters": "method as in PMID 37392305", "conditions": "40 μM; cited from earlier work"}, "[7]": {"system": "normal hematopoietic stem cell samples", "parameters": "method as in PMID 37392305", "conditions": "40 μM; cited from earlier work"}, "Kasumi-1": {"system": "Kasumi-1", "parameters": "method as in PMID 37392305", "conditions": "xenograft mouse models injected with Kasumi-1; cited from earlier work"}, "[8]": {"conditions": "concentration close to IC50, representative plot"}},
  "data": [
    {"compound": "Cc1nc2sccn2c(=O)c1CCN1CCC(=C(c2ccc(F)cc2)c2ccc(F)cc2)CC1", "note": "[ritanserin]", "values": [
      {"measurement": "IC50", "setting": "HEL cells [1]; 24 h treatment then alamarBlue 24 h", "value": "~49", "unit": "µM"},
      {"measurement": "IC50", "setting": "HEL cells [1]; Homo sapiens, 24 h, 24 h treatment then alamarBlue 24 h", "value": "49.2 ± 2", "unit": "µM"},
      {"measurement": "IC50", "setting": "HEL cells [1]; Homo sapiens, 72 h treatment then alamarBlue 24 h", "value": "29.6 ± 1", "unit": "µM"},
      {"measurement": "IC50", "setting": "K562 cells; Homo sapiens, K562, 24 h, K562, 24 h treatment then alamarBlue 24 h", "value": "70.4 ± 2.2", "unit": "µM"},
      {"measurement": "IC50", "setting": "K562 cells; Homo sapiens, K562, K562, 72 h treatment then alamarBlue 24 h", "value": "42.5 ± 1.8", "unit": "µM"},
      {"measurement": "IC50", "setting": "K562 cells; K562, 24 h treatment then alamarBlue 24 h", "value": "~70", "unit": "µM"},
      {"measurement": "IC50", "setting": "[2]; 24 h", "value": "42.9 ± 1.3", "unit": "µM"},
      {"measurement": "IC50", "setting": "[2]; 72 h", "value": "32.5 ± 1.9", "unit": "µM"},
      {"measurement": "cell death of IL-2 stimulated proliferating PBLs", "setting": "[2]; untransformed PBLs, 50 μM", "value": "complete cell death"},
      {"measurement": "Early apoptotic (Annexin V+ 7AAD-)", "setting": "THP-1 cells [3]; [8]", "value": 14.4, "unit": "%"},
      {"measurement": "Late apoptotic (Annexin+ 7AAD+)", "setting": "THP-1 cells [3]; [8]", "value": 2.2, "unit": "%"},
      {"measurement": "Live cells (Annexin V- 7AAD-)", "setting": "THP-1 cells [3]; [8]", "value": 83.2, "unit": "%"},
      {"measurement": "Necrotic (Annexin- 7AAD+)", "setting": "THP-1 cells [3]; [8]", "value": 0.2, "unit": "%"},
      {"measurement": "modality of cell death", "setting": "THP-1 cells [3]; concentration near IC50", "value": "early apoptosis"},
      {"measurement": "Early apoptotic (Annexin V+ 7AAD-)", "setting": "HL-60 cells; [8]", "value": 3.3, "unit": "%"},
      {"measurement": "Late apoptotic (Annexin+ 7AAD+)", "setting": "HL-60 cells; [8]", "value": 62.9, "unit": "%"},
      {"measurement": "Live cells (Annexin V- 7AAD-)", "setting": "HL-60 cells; [8]", "value": 33.8, "unit": "%"},
      {"measurement": "Necrotic (Annexin- 7AAD+)", "setting": "HL-60 cells; [8]", "value": 0, "unit": "%"},
      {"measurement": "modality of cell death", "setting": "HL-60 cells; concentration near IC50", "value": "late apoptosis"},
      {"measurement": "Early apoptotic (Annexin V+ 7AAD-)", "setting": "HEL cells [4]; [8]", "value": 12.2, "unit": "%"},
      {"measurement": "Late apoptotic (Annexin+ 7AAD+)", "setting": "HEL cells [4]; [8]", "value": 2.3, "unit": "%"},
      {"measurement": "Live cells (Annexin V- 7AAD-)", "setting": "HEL cells [4]; [8]", "value": 82.5, "unit": "%"},
      {"measurement": "Necrotic (Annexin- 7AAD+)", "setting": "HEL cells [4]; [8]", "value": 2.9, "unit": "%"},
      {"measurement": "modality of cell death", "setting": "HEL cells [4]; concentration near IC50", "value": "early apoptosis"},
      {"measurement": "number of pathways affected / significantly downmodulated", "setting": "THP-1 cells [5]", "value": "more than 500"},
      {"measurement": "apoptosis, % of cells", "setting": "[6]", "value": "up to 70%"},
      {"measurement": "apoptosis, % of cells", "setting": "[7]", "value": "below 30%"},
      {"measurement": "survival", "setting": "Kasumi-1", "value": "improved survival"},
      {"measurement": "tumor burden", "setting": "Kasumi-1", "value": "significant reduction"}
    ]}
  ]
}
